Data taken from US10160724B2, “Tetrahydropyridine derivatives and their use as antibacterial agents” (Dong-A St Co., Ltd., priority 2016, dated 2018).
≈ marks a conversion by molar mass, not a printed value. Like-named read-outs stand apart in the source and are kept apart here.

Experiments:
Experiment in all cases: In vitro antibiotic activity, agar dilution method (Mueller-Hinton agar, NCCLS)
Assay type in all cases: cell-based
[1] = test system: E. coli ATCC 25922; conditions: Escherichia coli
Method: (§1) To measure the antibiotic activity of the compounds prepared by Examples, antibiotic activity test in vitro was performed by agar dilution method using Mueller-Hinton agar according to the NCCLS (National Committee for Clinical Laboratory Standards. 2000. Methods for dilution antimicrobial susceptibility tests for bacteria that grow aerobiocally. Approved standard, NCCLS document M7-M5, 5th ed, vol 20, no 2. National Committee for Clinical Laboratory Standards, Wayne, Pa.). The test strain was Escherichia coli (ATCC 25922), Klebsiella pneumonia (ATCC 29665) and Pseudomonas aeriginosa (PAO1).

[2] = test system: K. pneumoniae ATCC 29665; conditions: Klebsiella pneumoniae
Method: as §1

[3] = test system: P. aeruginosa PAO1; conditions: Pseudomonas aeruginosa
Method: as §1

[4] = ATCC25922, agar dilution, Mueller-Hinton agar, read-out: MIC for E. coli ATCC 25922
[5] = ATCC29665, agar dilution, Mueller-Hinton agar, read-out: MIC for K. pneumoniae ATCC 29665
[6] = PAO1, agar dilution, Mueller-Hinton agar, read-out: MIC for P. aeruginosa PAO1

| Structure (SMILES) | MIC ([1]; ATCC25922, read-out: MIC for E. coli ATCC 25922) | MIC ([2]; ATCC29665, read-out: MIC for K. pneumoniae ATCC 29665) | MIC ([3]; PAO1, read-out: MIC for P. aeruginosa PAO1) | MIC [1, 4] | MIC [2, 5] | MIC [3, 6] |
| --- | --- | --- | --- | --- | --- | --- |
| CN(C)c1ccc(C#Cc2ccc(C3=CCN(CCC(C)(C(=O)NO)S(C)(=O)=O)CC3)cc2)cc1 (stereo not drawn) [Example 1, 4-(4-(4-((4-(dimethylamino)phenyl)ethynyl)phenyl)-3,6-dihydropyridin-1(2H)-yl)-N-hydroxy-2-methyl-2-(methylsulfonyl)butanamide] | > 16 µg/mL | > 16 µg/mL | > 16 µg/mL | – | – | – |
| CC(CCN1CC=C(c2ccc(C#Cc3ccccc3)cc2)CC1)(C(=O)NO)S(C)(=O)=O (stereo not drawn) [Example 2, N-hydroxy-2-methyl-2-(methylsulfonyl)-4-(4-(4-(phenylethynyl)phenyl)-3,6-dihydropyridin-1(2H)-yl)butanamide] | – | – | – | < 1 µg/mL | 1 to 8 µg/mL (≈ 2.21 to 17.7 µM) | 1 to 8 µg/mL (≈ 2.21 to 17.7 µM) |
| COc1ccc(C#Cc2ccc(C3=CCN(CCC(C)(C(=O)NO)S(C)(=O)=O)CC3)cc2)cc1 (stereo not drawn) [Example 3, N-hydroxy-4-(4-(4-((4-methoxyphenyl)ethynyl)phenyl)-3,6-dihydropyridin-1(2H)-yl)-2-methyl-2-(methylsulfonyl)butanamide] | – | – | – | > 16 µg/mL | 1 to 8 µg/mL (≈ 2.07 to 16.6 µM) | > 16 µg/mL |
| CC(CCN1CC=C(c2ccc(C#CC3CC3)cc2)CC1)(C(=O)NO)S(C)(=O)=O (stereo not drawn) [Example 4, 4-(4-(4-(cyclopropylethynyl)phenyl)-3,6-dihydropyridin-1(2H)-yl)-N-hydroxy-2-methyl-2-(methylsulfonyl)butanamide] | – | – | – | < 1 µg/mL | < 1 µg/mL | 1 to 8 µg/mL (≈ 2.4 to 19.2 µM) |
| CC(CCN1CC=C(c2ccc(C#CCCO)cc2)CC1)(C(=O)NO)S(C)(=O)=O (stereo not drawn) [Example 5, N-hydroxy-4-(4-(4-(4-hydroxybut-1-yn-1-yl)phenyl)-3,6-dihydropyridin-1(2H)-yl)-2-methyl-2-(methylsulfonyl)butanamide] | – | – | – | 1 to 8 µg/mL (≈ 2.38 to 19 µM) | 8 to 16 µg/mL (≈ 19 to 38 µM) | 1 to 8 µg/mL (≈ 2.38 to 19 µM) |
| CCCCC#Cc1ccc(C2=CCN(CCC(C)(C(=O)NO)S(C)(=O)=O)CC2)cc1 (stereo not drawn) [Example 6, 4-(4-(4-(hex-1-yn-1-yl)phenyl)-3,6-dihydropyridin-1(2H)-yl)-N-hydroxy-2-methyl-2-(methylsulfonyl)butanamide] | – | – | – | < 1 µg/mL | 1 to 8 µg/mL (≈ 2.31 to 18.5 µM) | 8 to 16 µg/mL (≈ 18.5 to 37 µM) |
| CN(C)CC#Cc1ccc(C2=CCN(CCC(C)(C(=O)NO)S(C)(=O)=O)CC2)cc1 (stereo not drawn) [Example 7, 4-(4-(4-(3-(dimethylamino)prop-1-yn-1-yl)phenyl)-3,6-dihydropyridin-1(2H)-yl)-N-hydroxy-2-methyl-2-(methylsulfonyl)butanamide] | – | – | – | 1 to 8 µg/mL (≈ 2.31 to 18.5 µM) | 1 to 8 µg/mL (≈ 2.31 to 18.5 µM) | 1 to 8 µg/mL (≈ 2.31 to 18.5 µM) |
| CC(O)C#Cc1ccc(C2=CCN(CCC(C)(C(=O)NO)S(C)(=O)=O)CC2)cc1 (stereo not drawn) [Example 8, N-hydroxy-4-(4-(4-(3-hydroxybut-1-yn-1-yl)phenyl)-3,6-dihydropyridin-1(2H)-yl)-2-methyl-2-(methylsulfonyl)butanamide] | – | – | – | > 16 µg/mL | > 16 µg/mL | > 16 µg/mL |
| CC(CCN1CC=C(c2ccc(C#CC3CCCC3)cc2)CC1)(C(=O)NO)S(C)(=O)=O (stereo not drawn) [Example 9, 4-(4-(4-(cyclopentylethynyl)phenyl)-3,6-dihydropyridin-1(2H)-yl)-N-hydroxy-2-methyl-2-(methylsulfonyl)butanamide] | – | – | – | < 1 µg/mL | 1 to 8 µg/mL (≈ 2.25 to 18 µM) | > 16 µg/mL |
| CC(CCN1CC=C(c2ccc(C#CC3CCCCC3)cc2)CC1)(C(=O)NO)S(C)(=O)=O (stereo not drawn) [Example 10, 4-(4-(4-(cyclohexylethynyl)phenyl)-3,6-dihydropyridin-1(2H)-yl)-N-hydroxy-2-methyl-2-(methylsulfonyl)butanamide] | – | – | – | 1 to 8 µg/mL (≈ 2.18 to 17.4 µM) | 8 to 16 µg/mL (≈ 17.4 to 34.9 µM) | 8 to 16 µg/mL (≈ 17.4 to 34.9 µM) |
| CCCC#Cc1ccc(C2=CCN(CCC(C)(C(=O)NO)S(C)(=O)=O)CC2)cc1 (stereo not drawn) [Example 11, N-hydroxy-2-methyl-2-(methylsulfonyl)-4-(4-(4-(pent-1-yn-1-yl)phenyl)-3,6-dihydropyridin-1(2H)-yl)butanamide] | – | – | – | < 1 µg/mL | 1 to 8 µg/mL (≈ 2.39 to 19.1 µM) | 1 to 8 µg/mL (≈ 2.39 to 19.1 µM) |
| CC(CCN1CC=C(c2ccc(C#CCC3CCCCC3)cc2)CC1)(C(=O)NO)S(C)(=O)=O (stereo not drawn) [Example 12, 4-(4-(4-(3-cyclohexylprop-1-yn-1-yl)phenyl)-3,6-dihydropyridin-1(2H)-yl)-N-hydroxy-2-methyl-2-(methylsulfonyl)butanamide] | – | – | – | 8 to 16 µg/mL (≈ 16.9 to 33.9 µM) | 8 to 16 µg/mL (≈ 16.9 to 33.9 µM) | > 16 µg/mL |
| CC(C)CC#Cc1ccc(C2=CCN(CCC(C)(C(=O)NO)S(C)(=O)=O)CC2)cc1 (stereo not drawn) [Example 13, N-hydroxy-2-methyl-4-(4-(4-(4-methylpent-1-yn-1-yl)phenyl)-3,6-dihydropyridin-1(2H)-yl)-2-(methylsulfonyl)butanamide] | – | – | – | < 1 µg/mL | 1 to 8 µg/mL (≈ 2.31 to 18.5 µM) | 8 to 16 µg/mL (≈ 18.5 to 37 µM) |
| CC(CCN1CC=C(c2ccc(C#CCCCCl)cc2)CC1)(C(=O)NO)S(C)(=O)=O (stereo not drawn) [Example 14, 4-(4-(4-(5-chloropent-1-yn-1-yl)phenyl)-3,6-dihydropyridin-1(2H)-yl)-N-hydroxy-2-methyl-2-(methylsulfonyl)butanamide] | – | – | – | < 1 µg/mL | 1 to 8 µg/mL (≈ 2.21 to 17.7 µM) | 1 to 8 µg/mL (≈ 2.21 to 17.7 µM) |
| CC(CCN1CC=C(c2ccc(C#CCN3CCCC3)cc2)CC1)(C(=O)NO)S(C)(=O)=O (stereo not drawn) [Example 15, N-hydroxy-2-methyl-2-(methylsulfonyl)-4-(4-(4-(3-(pyrrolidin-1-yl)prop-1-yn-1-yl)phenyl)-3,6-dihydropyridin-1(2H)-yl)butanamide] | – | – | – | 1 to 8 µg/mL (≈ 2.18 to 17.4 µM) | 8 to 16 µg/mL (≈ 17.4 to 34.8 µM) | 1 to 8 µg/mL (≈ 2.18 to 17.4 µM) |
| CCN(CC)CC#Cc1ccc(C2=CCN(CCC(C)(C(=O)NO)S(C)(=O)=O)CC2)cc1 (stereo not drawn) [Example 16, 4-(4-(4-(3-(diethylamino)prop-1-yn-1-yl)phenyl)-3,6-dihydropyridin-1(2H)-yl)-N-hydroxy-2-methyl-2-(methylsulfonyl)butanamide] | – | – | – | 1 to 8 µg/mL (≈ 2.17 to 17.3 µM) | 1 to 8 µg/mL (≈ 2.17 to 17.3 µM) | 1 to 8 µg/mL (≈ 2.17 to 17.3 µM) |
| CC(CCN1CC=C(c2ccc(C#CCN3CCC[C@H]3CO)cc2)CC1)(C(=O)NO)S(C)(=O)=O (stereo partly drawn) [Example 17, N-hydroxy-4-(4-(4-(3-((S)-2-(hydroxymethyl)pyrrolidin-1-yl)prop-1-yn-1-yl)phenyl)-3,6-dihydropyridin-1(2H)-yl)-2-methyl-2-(methylsulfonyl)butanamide] | – | – | – | > 16 µg/mL | 8 to 16 µg/mL (≈ 16.3 to 32.7 µM) | 1 to 8 µg/mL (≈ 2.04 to 16.3 µM) |
| CC(CCN1CC=C(c2ccc(C#CCCCO)cc2)CC1)(C(=O)NO)S(C)(=O)=O (stereo not drawn) [Example 18, N-hydroxy-4-(4-(4-(5-hydroxypent-1-yn-1-yl)phenyl)-3,6-dihydropyridin-1(2H)-yl)-2-methyl-2-(methylsulfonyl)butanamide] | – | – | – | < 1 µg/mL | 1 to 8 µg/mL (≈ 2.3 to 18.4 µM) | 1 to 8 µg/mL (≈ 2.3 to 18.4 µM) |
| CC(CCN1CC=C(c2ccc(C#CCCCOS(C)(=O)=O)cc2)CC1)(C(=O)NO)S(C)(=O)=O (stereo not drawn) [Example 19, 5-(4-(1-(4-(hydroxyamino)-3-methyl-3-(methylsulfonyl)-4-oxobutyl)-1,2,3,6-tetrahydropyridin-4-yl)phenyl)pent-4-yn-1-yl methanesulfonate] | – | – | – | < 1 µg/mL | 1 to 8 µg/mL | 1 to 8 µg/mL |
| CN(C)CCCC#Cc1ccc(C2=CCN(CCC(C)(C(=O)NO)S(C)(=O)=O)CC2)cc1 (stereo not drawn) [Example 20, 4-(4-(4-(5-(dimethylamino)pent-1-yn-1-yl)phenyl)-3,6-dihydropyridin-1(2H)-yl)-N-hydroxy-2-methyl-2-(methylsulfonyl)butanamide] | – | – | – | 1 to 8 µg/mL (≈ 2.17 to 17.3 µM) | 8 to 16 µg/mL (≈ 17.3 to 34.7 µM) | 8 to 16 µg/mL (≈ 17.3 to 34.7 µM) |
